Each structure is given as a SMILES string.

For this assay, the system named is TC-1 tumor. As to the kind of experiment: TC-1 subcutaneous tumor model. The format is in vivo. The protocol: (FIG. 2A) MC38 cells were subcutaneously transplanted into C57BL/6 WT (n=5-6/group) and Rag1 KO mice (n=5/group), respectively. Tumor bearing mice were treated with β-lap (0.3 mg, i.t.) every other day for four times. […] (FIG. 2B) MC38 tumor bearing C57BL/6 mice (n=5/group) were treated with β-lap (0.3 mg, i.t.) every other day for four times. For CD8^+ T cell depletion, 200 μg of anti-CD8 antibodies were intraperitoneally injected four times at three days interval during the treatment. (FIG. 2C) TC-1 tumor bearing C57BL/6 mice (n=4-5/group) were treated with β-lap (0.1 mg, i.t.) for four times with or without anti-CD8 antibodies. […] (FIG. 2E) 2×10^6 A549 cells were subcutaneously injected into C57BL/6 Rag1^−/− mice (n=5/group for vehicle and β-lap; n=7/group for vehicle+OT-1 and β-lap+OT-1). 30 days later, the mice were i.v. adoptively transfected with 2×10^6 lymph node cells from OT-1 transgenic mice. On the following day, tumor-bearing mice were intratumorally treated with β-lap (0.2 mg) every other day for 4 times. (FIG. 2F) A549 cells were subcutaneously injected into NSG-SGM3 (n=5/group) or NSG-SGM3 harboring human CD34^+ hematopoietic stem cells (n=5/group for Hu-NSG vehicle; n=6/group for Hu-NSG β-lap). Tumor bearing mice were treated with β-lap (0.2 mg, i.t.) every other day for four times. Tumor growth was measured twice a week.
(FIG. 15A) C57BL/6J WT or rag−/− mice (n=5/group) were inoculated subcutaneously (s.c.) with 6×10^5 MC38 cells and treated intratumorally (i.t.) with 0.15 mg of IB-DNQ or vehicle on day 10, day 12, day 14 and day 16. (FIG. 15B) C57BL/6J WT or rag−/− mice (n=5/group) were inoculated subcutaneously (s.c.) with 1×10^5 TC-1 cells and treated intratumorally (i.t.) with 0.15 mg of IB-DNQ or vehicle on day 10, day 12, day 14 and day 16. Tumor diameters were measured by calipers twice a week. Tumor volume is presented as mean±SD. *p<0.05, **p<0.01, ***P<0.001.
FIGS. 17A-I (related to FIGS. 1A-J). […] (FIG. 17A) NQO1 expression in different murine cancer cell lines was determined by western blotting assay. […] (FIG. 17C) MC38 cells (NQO1 WT or KO) were treated with β-lap for 3 hr followed by washing and replacing fresh medium. Cell viability was determined by Sulforhodamine B (SRB) Assay 48 hr later. […] (FIG. 17E, FIG. 17F) B16 cells (NQO1 null or stable overexpression) were treated with β-lap with or without dicoumarol (DIC, 50 μM) for 3 hr followed by washing and replacing medium. Cell viability was determined by SRB Assay 48 hr later. […] Catalase (1000 U/ml) was added and cell viability was assessed 48 hr later. (FIG. 17H) C57BL/6 mice (n=5/group) were transplanted with TC-1 cells, and intratumorally treated with β-lap (0.1 or 0.3 mg) every other day for four times. Tumor growth was monitored twice a week. […] Data are shown as mean±SEM. **P<0.01, ***P<0.001, ****P<0.0001 determined by unpaired student t-test (FIG. 17G) or two-way ANOVA (FIG. 17H and FIG. 17I).
6×10^5 MC38 or 8×10^5 MC38 NQO1 KO cells were subcutaneously transplanted into Rag1^−/−, C57BL/6, and NSG mice, respectively (n=5/group). Tumor-bearing mice were treated with IB-DNQ (12 mg/kg, i.t.) or 20% HPβCD (Vehicle) every other day for four times after tumor volumes reached to 50 mm^3.

Turning to `CC1(C)CCC2=C(O1)c1ccccc1C(=O)C2=O` [β-lap, β-lapachone], under “3 doses of β-lap (0.3 mg i.t.)”, the “tumor response in WT mice” value is listed as “tumor regression occurred” and the “tumor response in rag−/− mice” value was “but not in adaptive immune-deficient rag^−/− mice”. The “antitumor efficacy in STING deficient mice” value (β-lap 0.3 mg i.t.) is “significantly impaired the antitumor efficacy”. The tumor growth entry (β-lap 0.1 or 0.3 mg i.t. every other day four times) is “significant tumor suppression”. Further, the “tumor growth inhibition with anti-CD8 antibody” value (β-lap + anti-CD8 antibody versus β-lap alone) is given as “complete failure of tumor growth inhibition”.

The values are drawn from patent US20220160703A1, “TUMOR-SELECTIVE COMBINATION THERAPY” (The Board of Regents of The University of Texas System, priority 2019, published 2022).
